pEC50, pIC50: −log10 of the molar value.
Assays:
GABAA α5θ3γ2L = biological target: T1, GABAA α5θ3γ2L (Homo sapiens, UniProt P18507+P28472+P31644); assay: SyncroPatch automated patch-clamp electrophysiology, PAM mode; assay type: cell-based
T1 construct: expressed in transfected cells
Procedure: (§1) To evaluate GABAA receptor activity, compounds were evaluated with electrophysiology studies of against 4 GABAA subtypes (GABAA α1β2γ2L, α2θ3γ2L, α5θ3γ2L and α4θ3δ) in positive allosteric modulator (PAM) mode using the SyncroPatch automated platform at room temperature. A 6-point concentration-response curve of each test compound (10, 1, 0.1, 0.01, 0.001, or 0.0001 μM in DMSO). The rapid addition protocol was used, in which compound is rapidly applied and then washed off from the cell. 0.3% DMSO was used as negative control.
(§2) Test compounds: 6-point concentration-response curve of each test compound (10, 1, 0.1, 0.01, 0.001, 0.0001 μM in DMO).
(§3) Positive control: 5-point concentration-response curve of allopregnanolone ([…]).
(§4) Negative control: 0.3% DMSO
(§5) Each compound is tested across the plate with a single concentration per cell. A minimum of 2 wells are obtained per each concentration.
(§6) Powder stocks and DMSO stocks are stored at room temperature (in the dark). The powder stocks are diluted to 3 mM in 100% DMSO on the day of experiment.
(§7) SyncroPatch specific solutions are used throughout the assay. DMSO remains constant at 0.3% in the external solution throughout the assay.
(§8) The rapid addition protocol is used, in which compound is rapidly applied and then washed off from the cell. To test for PAM activity, the agonist GABA EC10-20 is applied three times (with wash steps in-between) as a control and to show activation reproducibility, followed by a 1 to 2 minute pre-incubation of client compound and then re-application of GABA EC10-20 in the presence of client compound. After a further wash step, maximum GABA (10 mM) is applied.
(§9) Automated patch clamp-recordings are performed using the SyncroPatch 384i. The voltage protocol generation and data collection are performed with PatchController384 V1.9.0 and Data Controller V1.9.0.
(§10) The fold increase is generated using the following equation, (Icomp/Icontrol)−1, where Icomp is the current amplitude in the presence of the compound and Icontrol is the current amplitude in the presence of agonist alone. This builds an EC50 concentration-response curve, where 0 represents no PAM activity and >0 represents PAM activity. […] The % Emax relative to Allopregnanolone is generated using the following equation, • [(IMaxComp/IAveMaxCtrl)*100], where IMaxComp is the individual maximum fold increase in current for each compound and IAveMaxCtrl is the average maximum fold increase generated in the presence of the control, allopregnanolone.
(§11) To test for PAM activity, the agonist GABA EC 10-20 was applied three times (with wash steps in-between) as a control and to show activation reproducibility, followed by a 1 to 2 minutes pre-incubation of client compound and then re-application of GABA EC 10-20 in the presence of client compound. After a further wash step, maximum GABA (10 mM) was applied. Allopregnanolone was utilized as a positive control. FIGS. 5A and 5B show for dose response of EC2-118 in comparison to that of allopregnanolone (positive control).

GABAA α2θ3γ2L = biological target: T2, GABAA α2θ3γ2L (Homo sapiens, UniProt P18507+P28472+P47869); assay: as above; assay type: cell-based; conditions: for Potency, α2βy, *EC50 / pEC50: PAM mode, GABA EC10-20, 6-point curve up to 10 μM, EC50 called extrapolated; for pEC50: read-out: Potency, α2βy, *EC50; for Potency, α2βy, % in brackets: bracketed % beside EC50/IC50
T2 construct: expressed in transfected cells
T2 sequence (P47869 29-451): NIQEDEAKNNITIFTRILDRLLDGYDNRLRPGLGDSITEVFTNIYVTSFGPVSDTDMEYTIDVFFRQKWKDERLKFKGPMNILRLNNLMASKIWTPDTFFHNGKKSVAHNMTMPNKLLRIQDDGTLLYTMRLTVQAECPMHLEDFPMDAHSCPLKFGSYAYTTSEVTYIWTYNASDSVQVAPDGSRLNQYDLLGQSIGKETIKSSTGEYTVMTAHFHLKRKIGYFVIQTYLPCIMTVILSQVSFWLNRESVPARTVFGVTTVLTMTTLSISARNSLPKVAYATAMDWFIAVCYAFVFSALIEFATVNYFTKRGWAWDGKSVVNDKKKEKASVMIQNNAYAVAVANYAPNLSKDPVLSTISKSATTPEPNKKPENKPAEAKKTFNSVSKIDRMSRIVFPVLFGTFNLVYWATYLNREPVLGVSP
T2 sequence (P28472 26-473): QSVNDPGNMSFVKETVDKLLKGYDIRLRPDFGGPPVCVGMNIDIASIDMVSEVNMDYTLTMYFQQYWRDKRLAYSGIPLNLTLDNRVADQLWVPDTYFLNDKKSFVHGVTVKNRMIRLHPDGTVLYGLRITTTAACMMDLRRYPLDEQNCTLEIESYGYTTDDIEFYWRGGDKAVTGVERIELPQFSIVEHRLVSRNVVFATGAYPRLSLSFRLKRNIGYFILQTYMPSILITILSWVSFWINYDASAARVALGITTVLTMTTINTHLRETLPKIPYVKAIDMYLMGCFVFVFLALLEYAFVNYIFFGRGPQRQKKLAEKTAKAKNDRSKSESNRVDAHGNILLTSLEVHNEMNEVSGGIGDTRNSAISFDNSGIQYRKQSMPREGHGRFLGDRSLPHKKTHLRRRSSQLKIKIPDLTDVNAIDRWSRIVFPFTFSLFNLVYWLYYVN
T2 sequence (P18507 40-475): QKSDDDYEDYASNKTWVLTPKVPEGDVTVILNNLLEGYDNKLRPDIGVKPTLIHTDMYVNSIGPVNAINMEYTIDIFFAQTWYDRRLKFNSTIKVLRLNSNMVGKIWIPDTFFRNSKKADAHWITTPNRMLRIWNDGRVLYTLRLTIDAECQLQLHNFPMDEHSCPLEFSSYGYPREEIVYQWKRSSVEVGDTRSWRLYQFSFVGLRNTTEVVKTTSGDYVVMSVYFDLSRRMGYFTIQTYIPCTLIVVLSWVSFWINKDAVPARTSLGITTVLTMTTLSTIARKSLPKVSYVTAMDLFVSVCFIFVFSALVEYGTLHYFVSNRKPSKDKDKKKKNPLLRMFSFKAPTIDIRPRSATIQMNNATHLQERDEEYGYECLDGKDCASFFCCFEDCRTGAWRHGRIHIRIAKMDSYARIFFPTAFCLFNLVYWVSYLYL
Procedure: as §1, §2, §3, §4, §5, §6, §7, §8, §9, §10, §11

GABAA α1β2γ2L = biological target: T3, GABAA α1β2γ2L (Homo sapiens, UniProt P14867+P18507+P47870); assay: as above; assay type: cell-based; conditions: for Potency, α1βy, % in brackets: bracketed % beside EC50/IC50
T3 construct: expressed in transfected cells
T3 sequence (P14867 28-456): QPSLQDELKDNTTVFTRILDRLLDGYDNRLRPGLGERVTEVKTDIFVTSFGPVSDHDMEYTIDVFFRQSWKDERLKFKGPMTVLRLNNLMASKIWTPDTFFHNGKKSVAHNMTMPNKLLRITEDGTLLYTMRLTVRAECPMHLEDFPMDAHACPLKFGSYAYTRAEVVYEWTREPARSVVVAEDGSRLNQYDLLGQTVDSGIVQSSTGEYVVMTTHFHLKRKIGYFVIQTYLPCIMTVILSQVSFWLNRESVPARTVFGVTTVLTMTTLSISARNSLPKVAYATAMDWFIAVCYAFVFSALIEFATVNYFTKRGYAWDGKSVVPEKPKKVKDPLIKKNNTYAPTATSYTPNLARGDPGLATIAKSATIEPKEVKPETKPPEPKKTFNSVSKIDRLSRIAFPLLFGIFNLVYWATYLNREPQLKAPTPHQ
T3 sequence (P47870 25-512 limits assumed): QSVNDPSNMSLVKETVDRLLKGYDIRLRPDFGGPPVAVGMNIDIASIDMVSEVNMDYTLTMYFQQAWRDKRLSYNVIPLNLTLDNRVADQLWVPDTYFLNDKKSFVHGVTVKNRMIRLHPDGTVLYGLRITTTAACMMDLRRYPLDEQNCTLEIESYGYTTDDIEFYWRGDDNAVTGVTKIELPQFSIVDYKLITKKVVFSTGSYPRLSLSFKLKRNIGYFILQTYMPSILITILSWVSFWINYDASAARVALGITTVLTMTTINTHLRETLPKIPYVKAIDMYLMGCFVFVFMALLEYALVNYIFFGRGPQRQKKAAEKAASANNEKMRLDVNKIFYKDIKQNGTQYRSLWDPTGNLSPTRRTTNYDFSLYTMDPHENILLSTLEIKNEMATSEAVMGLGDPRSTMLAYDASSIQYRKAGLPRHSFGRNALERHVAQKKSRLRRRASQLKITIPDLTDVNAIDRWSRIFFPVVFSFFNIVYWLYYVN
T3 sequence (P18507 40-475): as the sequence (P18507 40-475) above
Procedure: as §1, with “A 6-point concentration-response curve of each test compound (10, 1, 0.1, 0.01, 0.001, or 0.0001 μM in DMSO).” left out
as §3, §4, §5, §6, §7
(§12) The rapid addition protocol is used, in which compound is rapidly applied and then washed off from the cell. […] After a further wash step, maximum GABA (10 mM) is applied.
(§13) The voltage protocol generation and data collection are performed with PatchController384 V1.9.0 and Data Controller V1.9.0.
as §10, with “alone.” for “alone. This builds an EC50 concentration-response curve, where 0 represents no PAM activity and >0 represents PAM activity.”
(§14) After a further wash step, maximum GABA (10 mM) was applied. Allopregnanolone was utilized as a positive control.

GABAA α4θ3δ = biological target: T4, GABAA α4θ3δ (Homo sapiens, UniProt O14764+P28472+P48169); assay: as above; assay type: cell-based; conditions: for Potency, α4βδ (also printed α4βy), % in brackets: bracketed % beside EC50/IC50
T4 construct: expressed in transfected cells
T4 sequence (P48169 36-554): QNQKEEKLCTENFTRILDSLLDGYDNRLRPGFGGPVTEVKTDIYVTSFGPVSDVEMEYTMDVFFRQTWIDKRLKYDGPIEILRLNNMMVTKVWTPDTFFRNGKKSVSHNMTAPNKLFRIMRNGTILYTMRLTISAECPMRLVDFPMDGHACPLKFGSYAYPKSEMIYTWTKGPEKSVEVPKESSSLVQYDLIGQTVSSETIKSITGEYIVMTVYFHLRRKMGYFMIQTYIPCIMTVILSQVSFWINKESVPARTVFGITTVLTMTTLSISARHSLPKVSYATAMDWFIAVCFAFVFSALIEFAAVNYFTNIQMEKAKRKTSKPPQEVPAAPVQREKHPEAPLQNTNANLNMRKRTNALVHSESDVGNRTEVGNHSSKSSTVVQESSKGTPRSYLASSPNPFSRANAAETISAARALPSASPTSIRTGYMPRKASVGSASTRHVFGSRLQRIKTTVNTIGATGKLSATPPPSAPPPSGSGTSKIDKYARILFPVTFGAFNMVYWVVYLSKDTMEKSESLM
T4 sequence (P28472 26-473): as the sequence (P28472 26-473) above
T4 sequence (O14764 17-452 limits assumed): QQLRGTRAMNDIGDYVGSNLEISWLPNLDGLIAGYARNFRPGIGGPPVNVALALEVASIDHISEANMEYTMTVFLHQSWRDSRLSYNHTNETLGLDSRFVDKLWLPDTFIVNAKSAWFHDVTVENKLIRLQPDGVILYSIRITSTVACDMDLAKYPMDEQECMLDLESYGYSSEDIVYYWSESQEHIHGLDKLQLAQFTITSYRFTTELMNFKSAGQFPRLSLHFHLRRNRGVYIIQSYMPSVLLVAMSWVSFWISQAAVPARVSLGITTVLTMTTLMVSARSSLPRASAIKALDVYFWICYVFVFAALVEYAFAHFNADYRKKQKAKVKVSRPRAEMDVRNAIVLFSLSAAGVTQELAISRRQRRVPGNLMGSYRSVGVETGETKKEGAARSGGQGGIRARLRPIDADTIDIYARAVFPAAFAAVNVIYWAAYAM
Procedure: as §1, with “A 6-point concentration-response curve of each test compound (10, 1, 0.1, 0.01, 0.001, or 0.0001 μM in DMSO).” left out
as §3, §4, §5, §6, §7, §12, §13
as §10, with “alone.” for “alone. This builds an EC50 concentration-response curve, where 0 represents no PAM activity and >0 represents PAM activity.”
as §14

GABAA receptor = assay: Preliminary classification of GABAAR modulation from electrophysiology against 4 GABAA subtypes; assay type: cell-based; conditions: from the four subtype results
Source text: As an assessment for potential anxiolytic activity, compounds were screened for in vitro GABAA receptor activity utilizing electrophysiology studies. This is a well-established method of assessing activity of GABAA receptor positive allosteric modulators (PAMs) with known anxiolytic activity. The link between anxiolytic and sedative activity associated with α1/2/3βγ GABAAR subtypes is also well-established by previous studies. and there is a well-established history of clinical efficacy, utility, and risks associated with the use of full GABAAR PAMs [i.e. benzodiazepines (BZDs)] in the treatment of anxiety and seizure disorders.
as §1
The fold increase is generated using the following equation, (Icomp/Icontrol)−1, where Icomp is the current amplitude in the presence of the compound and Icontrol is the current amplitude in the presence of agonist alone. This builds an EC50 concentration-response curve, where 0 represents no PAM activity and >0 represents PAM activity. If a “bell-shape curve” is observed at the higher concentrations, showing a reduction in activity in comparison to previous concentrations, then to allow for a more accurate curve fit, these concentrations are removed from the graphs where necessary and noted in the compound table. The % Emax relative to Allopregnanolone is generated using the following equation, • [(IMaxComp/IAveMaxCtrl)*100], where IMaxComp is the individual maximum fold increase in current for each compound and IAveMaxCtrl is the average maximum fold increase generated in the presence of the control, allopregnanolone.

loss-of-righting-reflex = assay: Loss-of-righting-reflex (LORR), alone and with alcohol; assay type: in vivo; conditions: rats
Procedure: Rats were given EC2-118 (3.95 mg/kg IP) and alcohol (3 g/kg) and assessed for duration of loss-of-righting-reflex (LORR). […] The effects of EC2-118 (12.5 mg/kg IP) on alcohol-induced LORR were not determined.

anxiety = assay: Open field test (OFT) and elevated plus maze (EPM), IP administration; assay type: in vivo, rats
Procedure: FIG. 7 is a representation of rat movements during an open field test. Increased time in the open arms signifies anti-anxiety activity. […] The purple lines represent the motion of the rat.
In vivo studies in rats were conducted in the Bello laboratory as preliminary screening for activity of EC2-118. Male and female rats were exposed to an open field test (OFT) and elevated plus maze (EPM) 7 days apart (Kshatriya et al., 2020). Each group (n=8/group, […]) received IP injection 30 min prior to IP dosing of EC2-118 or vehicle control. We performed OFT and EPM in 52 adult SD rats (26 male/26 female). The groups were as follow vehicle (0.9% Saline, 4% Tween 80, and 4% DMSO; n=9 males; n=10 females), 3.95 mg/kg (n=10 males; n=8 females), 12.5 mg/kg (n=7 males, females n=8).

[1] = PAM mode, GABA EC10-20, 6-point curve up to 10 μM
[2] = PAM mode, GABA EC10-20, 6-point curve up to 10 μM, EC50 called extrapolated

T1 sequence (P31644 32-462): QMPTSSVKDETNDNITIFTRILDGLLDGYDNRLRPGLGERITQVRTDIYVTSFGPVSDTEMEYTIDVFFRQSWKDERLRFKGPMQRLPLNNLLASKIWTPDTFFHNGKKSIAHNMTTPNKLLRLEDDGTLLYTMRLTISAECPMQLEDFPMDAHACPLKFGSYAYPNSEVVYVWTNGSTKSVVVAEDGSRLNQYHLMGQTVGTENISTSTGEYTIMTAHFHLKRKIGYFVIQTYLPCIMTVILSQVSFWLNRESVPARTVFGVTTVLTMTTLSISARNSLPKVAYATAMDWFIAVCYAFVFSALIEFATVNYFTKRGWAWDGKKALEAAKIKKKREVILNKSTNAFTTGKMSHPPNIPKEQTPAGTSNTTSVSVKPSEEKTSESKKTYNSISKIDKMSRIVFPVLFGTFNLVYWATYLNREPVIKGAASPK
T1 sequence (P28472 26-473): as the sequence (P28472 26-473) above
T1 sequence (P18507 40-475): as the sequence (P18507 40-475) above

| pEC50 (GABAA α5θ3γ2L; PAM mode, GABA EC10-20, 6-point curve up to 10 μM, read-out: Potency, α5βy, *EC50) | Potency, α5βy, % in brackets (GABAA α5θ3γ2L; bracketed % beside EC50/IC50) | pEC50 (GABAA α2θ3γ2L) | Potency, α2βy, % in brackets (GABAA α2θ3γ2L) | pEC50 (GABAA α4θ3δ; PAM mode, GABA EC10-20, 6-point curve up to 10 μM, read-out: Potency, α4βδ (also printed α4βy), *EC50) | Induction of LORR by compound alone (loss-of-righting-reflex; 3.95 mg/kg, 12.95 IP) | pEC50 (GABAA α1β2γ2L; PAM mode, GABA EC10-20, 6-point curve up to 10 μM, EC50 called extrapolated, read-out: Potency, α1βy, *EC50) | Lethargy (observation) (anxiety; 12.5 mg/kg IP, rats) | SMILES | Potency, α5βy, *EC50 (GABAA α5θ3γ2L; [1]) | Potency, α2βy, *EC50 (GABAA α2θ3γ2L) | pIC50 (GABAA α1β2γ2L) | Potency, α1βy, % in brackets (GABAA α1β2γ2L) | pIC50 (GABAA α4θ3δ) | Potency, α4βδ (also printed α4βy), % in brackets (GABAA α4θ3δ) | Preliminary Classification of type of GABAAR modulation (GABAA receptor) | Potency, α1βy, *EC50 (GABAA α1β2γ2L; [2]) | Potency, α4βδ (also printed α4βy), *EC50 (GABAA α4θ3δ; [1]) | Impact on alcohol-induced LORR (duration) (loss-of-righting-reflex; 3.95 mg/kg IP with alcohol 3 g/kg) | Anxiolytic effect in OFT and EPM vs vehicle control (anxiety; 3.95 mg/kg IP, male and female SD rats, two-way ANOVA) | Effect in the open field test (OFT) (anxiety; 12.5 mg/kg IP, rats) |
| --- | --- | --- | --- | --- | --- | --- | --- | --- | --- | --- | --- | --- | --- | --- | --- | --- | --- | --- | --- | --- |
| – | – | – | – | – | – | – | – | O=c1cc(-c2cccc([N+](=O)[O-])c2)oc2ccc(Br)cc12 [6-bromo-3′-nitroflavone, reference compound] | N.R. | N.R. | 8.23 | −21% | < 5.00 | −30% | Partial α1 NAM | – | – | – | – | – |
| 5.72 | +22% | – | – | – | – | – | – | O=C1c2cc(Br)ccc2OC(c2ccccc2)C1(CO)CO (stereo not drawn) [EC2-52, 6-bromo-3,3-bis(hydroxymethyl)-2-phenylchroman-4-one] | – | N.R. | – | – | – | – | Partial α5 GABAAR PAM | N.R. | N.R. | – | – | – |
| – | – | 4.93 | +28% | < 5.00 | – | – | – | O=C1c2ccccc2OC(c2cccc([N+](=O)[O-])c2)C1(CO)CO (stereo not drawn) [EC2-104, 3,3-bis(hydroxymethyl)-2-(3-nitrophenyl)chroman-4-one] | N.R. | – | – | – | – | +30% | Partial α2 GABAAR PAM | N.R. | – | – | – | – |
| – | – | – | – | – | – | – | – | O=C1NC(c2cccc([N+](=O)[O-])c2)Nc2ccc(Br)cc21 (stereo not drawn) [EC2-117, 6-bromo-2-(3-nitrophenyl)-2,3-dihydroquinazolin-4(1H)-one] | α1 βy (N.R.) α2βy (N.R.) α5βy (N.R.) α4ßy (N.R.) | α1 βy (N.R.) α2βy (N.R.) α5βy (N.R.) α4ßy (N.R.) | – | – | – | – | Not active | α1 βy (N.R.) α2βy (N.R.) α5βy (N.R.) α4ßy (N.R.) | α1 βy (N.R.) α2βy (N.R.) α5βy (N.R.) α4ßy (N.R.) | – | – | – |
| – | – | 6.90 | +26% | – | did not induce an LORR | 6.87 | increased lethargy | O=C1NC(c2cccc([N+](=O)[O-])c2)Oc2ccc(Br)cc21 (stereo not drawn) [EC2-118, 6-bromo-2-(3-nitrophenyl)-2,3-dihydro-4H-benzo[e][1,3]oxazin-4-one] | N.R. | – | – | +29% | – | – | Partial α1/2 GABAAR PAM | – | N.R. | did not have a significant impact on alcohol-induced LORR | significant differences between 3.95 mg/kg dose and vehicle control | did not exhibit a significant effect |
| – | – | – | – | – | – | – | – | O=C1c2cc(Br)ccc2OC(c2cccc([N+](=O)[O-])c2)C1(CO)CO (stereo not drawn) [EC2-124] | α1ßy (N.R.) α2βy (N.R.) α5βy (N.R.) α4βy (N.R.) | α1ßy (N.R.) α2βy (N.R.) α5βy (N.R.) α4βy (N.R.) | – | – | – | – | Not Active | α1ßy (N.R.) α2βy (N.R.) α5βy (N.R.) α4βy (N.R.) | α1ßy (N.R.) α2βy (N.R.) α5βy (N.R.) α4βy (N.R.) | – | – | – |
